From patent US20250304549A1, “HYDROXYAMIDE DERIVATIVE AND USE THEREOF” (SICHUAN HUIYU PHARMACEUTICAL CO., LTD., priority 2022, published 2025)
Counter-ions that a name gives are not always drawn.

How the values were obtained:
LSD1 = LSD1 (Homo sapiens (Human), UniProt O60341); assay: In vitro enzyme inhibition assay - LSD1 (HTRF); format: biochemical
pan-HDAC = assay: In vitro enzyme inhibition assay - HDAC (HDAC-Glo I/II), pan-HDAC; format: biochemical
How it was run: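 The compound, serially diluted 5-fold in DMSO across 8 concentrations starting from a 1 mM stock, was made up as 4× working solutions in HDAC buffer. It was then tested in the HDAC-Glo I/II system, and luminescence was recorded. IC50 values came from variable-slope four-parameter curves of inhibition rate.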

HDAC8 = HDAC8 (Homo sapiens (Human), UniProt Q9BY41); assay: In vitro enzyme inhibition assay - HDAC (HDAC-Glo I/II), HDAC8; format: biochemical; settings: read-out: HDAC IC50 (nM) HDAC 8
Method: 2. In Vitro Enzyme Inhibition Assay—HDAC
The effect of the compound on the enzymatic activity of pan-HDAC and two isoforms (HDAC1 and HDAC8) was examined using the HDAC-Glo I/II Assay and Screening System assay to assess the level of inhibition of HDAC protease activity and selectivity in each isoform. The proteins and detection reagents were from the HDAC-Glo™ I/II Assay and Screening System (Promega). A 1 mM stock solution of the compound was prepared in DMSO and diluted in a 5-fold gradient to create a series of 8 concentrations, and a specific volume of the highest concentration was diluted 25 times with HDAC Buffer to obtain 4× working solution of the compound. […] The 384-well plate was then read on a multifunctional microplate reader, with the Luminescence channel selected to record Luminescence values (RLU). The inhibition rate was calculated using the following formula: […]
Note: ‘Negative’ refers to the group without the inhibitor; ‘Blank’ refers to the group without the enzyme.
The IC50 value was calculated by fitting the inhibition rate by GraphPad Prism software, employing log (inhibitor) vs. response-Variable Slope (four parameters) model.

NCI-H1417 cells = assay: In vitro cell inhibition assay - H1417 cell proliferation (CellTiter-Glo); format: cell-based; settings: Homo sapiens, NCI-H1417, H1417 small cell lung cancer cell proliferation
How it was run: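 Cells exposed to 8 compound concentrations (5-fold dilutions) in BEGM with 10% FBS for 7 days at 37° C., 5% CO2. Viable cells measured by CellTiter-Glo luminescence; inhibition versus no-inhibitor and no-cell controls, IC50 fitted.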

NCI-H69 cells = assay: In vitro cell inhibition assay - NCI-H69 cell proliferation (CellTiter-Glo); format: cell-based; settings: Homo sapiens, NCI-H69, H69 small cell lung cancer cell proliferation
How it was run: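 CellTiter-Glo luminescence measured viability after a 7-day, 37° C. exposure of NCI-H69 cells (1×10^3/well) to an 8-point, 5-fold dilution series in RPMI-640/20% FBS. Inhibition was normalised to untreated and cell-free wells and IC50 derived by curve fitting.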

Sequence of HDAC8 (Q9BY41 whole entry): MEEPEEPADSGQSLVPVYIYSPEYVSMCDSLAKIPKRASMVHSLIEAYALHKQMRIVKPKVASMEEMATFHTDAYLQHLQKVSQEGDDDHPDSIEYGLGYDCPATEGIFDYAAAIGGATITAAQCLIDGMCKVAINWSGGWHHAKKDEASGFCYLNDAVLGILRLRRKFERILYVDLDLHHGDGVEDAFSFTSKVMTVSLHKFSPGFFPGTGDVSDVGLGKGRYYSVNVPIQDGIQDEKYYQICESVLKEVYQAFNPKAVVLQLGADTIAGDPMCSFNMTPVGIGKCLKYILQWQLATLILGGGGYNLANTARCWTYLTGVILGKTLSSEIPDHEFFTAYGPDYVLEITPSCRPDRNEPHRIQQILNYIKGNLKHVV

Row | Compound | IC50 (LSD1) [nM] | IC50 (pan-HDAC) [nM] | IC50 (HDAC8) [nM] | IC50 (NCI-H1417 cells) [nM] | IC50 (NCI-H69 cells) [nM]
1 | COc1ccc(-c2cnc(N3CCC(NCc4ccc(/C=C/C(=O)NO)c5[nH]ncc45)CC3)c(C#N)c2-c2ccc(C#N)c(F)c2)cc1O [Example 180, (E)-3-(4-(((1-(3-Cyano-4-(4-cyano-3-fluorophenyl)-5-(3-hydroxy-4-methoxyphenyl)pyridin-2-yl)piperidin-4-yl)amino)methyl)-1H-indazol-7-yl)-N-hydroxyacrylamide formate] | 0.11 | 23.4 | 1240 | 3.63 | 5040
2 | CNc1ccc(-c2cnc(N3CCC(NCc4cnc(/C=C/C(=O)NO)nc4)CC3)c(C#N)c2-c2ccc(C#N)c(F)c2)cc1O [Example 196, (E)-3-(5-(((1-(3-Cyano-4-(4-cyano-3-fluorophenyl)-5-(3-hydroxy-4-(methylamino)phenyl)pyridin-2-yl)piperidin-4-yl)amino)methyl)pyrimidin-2-yl)-N-hydroxyacrylamide hydrochloride] | 6.68 | 5.69 | 26.5 | 39.3 | 83.3
3 | N#Cc1ccc(-c2c(-c3ccc(OCCc4ccc(/C=C/C(=O)NO)cc4)c(O)c3)cnc(N3CCC(N)CC3)c2C#N)cc1F [Example 231, (E)-3-(4-(2-(4-(6-(4-Aminopiperidin-1-yl)-5-cyano-4-(4-cyano-3-fluorophenyl)pyridin-3-yl)-2-hydroxyphenoxy)ethyl)phenyl)-N-hydroxyacrylamide hydrochloride] | 0.07 | 82.4 | 140 | 1.31 | 1140
4 | N#Cc1ccc(-c2c(-c3ccc(OCCCCCCC(=O)NO)c(O)c3)cnc(N3CCC(N)CC3)c2C#N)cc1F [Example 25, 7-(4-(6-(4-Aminopiperidin-1-yl)-5-cyano-4-(4-cyano-3-fluorophenyl)pyridin-3-yl)-2-hydroxyphenoxy)-N-hydroxyheptanamide hydrochloride] | 0.23 | 6.66 | 129 | 50.1 | 
5 | N#Cc1ccc(-c2nc(N3CCC(N)CC3)cc(O)c2-c2ccc(OCCCCCCC(=O)NO)c(O)c2)cc1F [Example 19, 7-(4-(6-(4-aminopiperidin-1-yl)-2-(4-cyano-3-fluorophenyl)-4-hydroxypyridin-3-yl)-2-hydroxyphenoxy)-N-hydroxyheptanamide hydrochloride] | 0.86 | 174 | 221 | 2820 | 
6 | N#Cc1ccc(-c2cc(C(=O)N3C4CCC3CC(N)C4)sc2-c2ccc(OCCCCCCC(=O)NO)c(O)c2)cc1F (centres unmarked) [Example 32, 7-(4-(5-(3-amino-8-azabicyclo[3.2.1]octane-8-carbonyl)-3-(4-cyano-3-fluorophenyl)thiophen-2-yl)-2-hydroxyphenoxy)-N-hydroxyheptanamide hydrochloride] | 0.35 | 14 | 279 | 54.7 | 
7 | COc1ccc(-c2cnc(N3CCC(NCc4ccc(/C=C/C(=O)NO)cc4)CC3)c(C#N)c2-c2cnc(C#N)cn2)cc1O [Example 256, (E)-3-(4-(((1-(3-Cyano-4-(5-cyanopyrazin-2-yl)-5-(3-hydroxy-4-methoxyphenyl)pyridin-2-yl)piperidin-4-yl)amino)methyl)phenyl)-N-hydroxyacrylamide formate] | 28.8 | 0.26 |  | 8.48 | 8.63
8 | N#Cc1ccc(-c2nc(N3CC4CC3CC4N)n3ccnc3c2-c2ccc(OCCCCCCC(=O)NO)c(O)c2)cc1F (centres unmarked) [Example 22, 7-(4-(5-(5-(5-Amino-2-azabicyclo[2.2.1]heptan-2-yl)-7-(4-cyano-3-fluorophenyl)imidazo[1,2-c]pyrimidin-8-yl)-2-hydroxyphenoxy)-N-hydroxyheptanamide hydrochloride] | 0.31 | 144 |  | 106 | 4730
9 | COc1ccc(-c2cnc(N3CCC(NCc4ccc(/C=C/C(=O)NO)cc4)CC3)c(C#N)c2-c2cnc(C#N)nc2)cc1O [Example 250, E)-3-(4-(((1-(3-Cyano-4-(2-cyanopyrimidin-5-yl)-5-(3-hydroxy-4-methoxyphenyl)pyridin-2-yl)piperidin-4-yl)amino)methyl) phenyl)-N-hydroxyacrylamide formate] | 17 | 1.08 |  | 2.42 | 1.93
10 | Cc1noc2cc(-c3cnc(N4CCC(NCc5ccc(/C=C/C(=O)NO)cn5)CC4)c(C#N)c3-c3ccc(C#N)c(F)c3)c(F)cc12 [Example 236, (E)-3-(6-(((1-(3-Cyano-4-(4-cyano-3-fluorophenyl)-5-(5-fluoro-3-methylbenzo[d]isoxazol-6-yl)pyridin-2-yl)piperidin-4-yl)amino)methyl)pyridin-3-yl)-N-hydroxyacrylamide formate] | 0.59 | 37 |  | 6.02 | 410
11 | COc1ccc(-c2c(-c3ccc(C#N)c(F)c3)nc(N3CCC(NCc4ccc(/C=C/C(=O)NO)cc4)CC3)n(C)c2=O)cc1O [Example 67, (E)-3-(4-(((1-(4-(4-Cyano-3-fluorophenyl)-5-(3-hydroxy-4-methoxy-phenyl)-1-methyl-6-oxo-1,6-dihydro-pyrimidin-2-yl)piperidin-4-yl)amino)methyl)phenyl)-N-hydroxy-acrylamide formate] | 1.89 | 39 |  | 21.2 | 444
12 | COc1ccc(-c2cnc(N3CCC(NCc4ccc(/C=C/C(=O)NO)cc4)CC3)cc2-c2ccc(C#N)nc2)cc1O [Example 272, ((E)-3-(4-(((1-(6-Cyano-5′-(3-hydroxy-4-methoxyphenyl)-[3,4′-bipyridin]-2′-yl)piperidin-4-yl)amino)methyl)phenyl)-N-hydroxyacrylamide formate] | 25.2 | 0.3 |  | 16.8 | 13.3
13 | N#Cc1ccc(-c2cc(OCc3ccc(/C=C/C(=O)NO)cc3)cc(N3CCC(N)CC3)n2)cc1F [Example 69, (E)-3-(4-(((2-(4-Aminopiperidin-1-yl)-6-(4-cyano-3-fluorophenyl)pyridin-4-yl)oxy)methyl)phenyl)-N-hydroxyacrylamide formate] | > 1000 | 30.1 | 198 |  | 
14 | COc1cc(N2CCC(N)CC2)nc(-c2ccc(C#N)c(F)c2)c1-c1ccc(OCCCCCCC(=O)NO)c(O)c1 [Example 27, 7-(4-(6-(4-aminopiperidin-1-yl)-2-(4-cyano-3-fluorophenyl)-4-methoxypyridin-3-yl)-2-hydroxyphenoxy)-N-hydroxyheptanamide hydrochloride] | 1.38 | 134 | 186 | 48.9 | 
15 | CC(C)(O)Cn1nnc2cc(-c3cnc(N4CCC(NCc5ccc(/C=C/C(=O)NO)cn5)CC4)c(C#N)c3-c3ccc(C#N)c(F)c3)ccc21 [Example 224, (E)-3-(6-(((1-(3-Cyano-4-(4-cyano-3-fluorophenyl)-5-(1-(2-hydroxy-2-methylpropyl)-1H-benzo[d][1,2,3]triazol-5-yl)pyridin-2-yl)piperidin-4-yl)amino)methyl)pyridin-3-yl)-N-hydroxyacrylamide formate] | 0.19 | 10.6 |  | 24.5 | 305
16 | COc1ccc(-c2c(OCCCCCCC(=O)NO)cc(N3C4CCC3CC(N)C4)nc2-c2ccc(C#N)c(F)c2)cc1O (centres unmarked) [Example 9, 7-((6-(3-Amino-8-azabicyclo[3.2.1]octan-8-yl)-2-(4-cyano-3-fluorophenyl)-3-(3-hydroxy-4-methoxyphenyl)pyridin-4-yl)oxy)-N-hydroxyheptanamide hydrochloride] | 1.82 | 25.3 |  | 915 | 3100
17 | COc1ccc(-c2c(OCCCCCCC(=O)NO)cc(N3CC4CC3CC4N)nc2-c2ccc(C#N)c(F)c2)cc1O (centres unmarked) [Example 15, 7-((6-(5-Amino-2-azabicyclo[2.2.1]heptan-2-yl)-2-(4-cyano-3-fluorophenyl)-3-(3-hydroxy-4-methoxyphenyl)pyridin-4-yl)oxy)-N-hydroxyheptanamide hydrochloride] | 1.45 | 27.5 |  | 221 | 2990
18 | CC(C)(O)Cn1nnc2cc(-c3cnc(N4CCC(NCc5ccc(/C=C/C(=O)NO)nc5)CC4)c(C#N)c3-c3ccc(C#N)c(F)c3)ccc21 [Example 225, (E)-3-(5-(((1-(3-Cyano-4-(4-cyano-3-fluorophenyl)-5-(1-(2-hydroxy-2-methylpropyl)-1H-benzo[d][1,2,3]triazol-5-yl)pyridin-2-yl)piperidin-4-yl)amino)methyl)pyridin-2-)-N-hydroxyacrylamide formate] | 0.35 | 3.43 |  | 8.51 | 78
